Assay: circulating plasma concentration of estradiol from an ILP system in HRT
Assay type: in vivo
Conditions: ILP (interlabial pad) system releasing 100 mg/day of estradiol as its 3-acetate ester; hormone replacement therapy
Text: In one embodiment, a kit is provided for administering the medication from the drug delivery device. The kit includes an interlabial pad, and a package such as a plastic vial or a plastic or foil container, for packaging the interlabial pad. The kit can also include directions for the use of the pad. The pad can contain a unit dose of the medication, for example an anti-infective, such as gynelotrimin. Another example is the delivery of estradiol to treat vaginal atrophy or for hormone replacement therapy (HRT). In HRT, and ILP system releasing […] of estradiol as its 3-acetate ester maintains a circulating plasma concentration of 300 pmol/L of the drug, which is within the clinically desirable range for HRT.

circulating plasma concentration: 300 pmol/L
Structure (SMILES): C[C@]12CC[C@@H]3c4ccc(O)cc4CC[C@H]3[C@@H]1CC[C@@H]2O [estradiol]
